5 compounds from patent US20230015949A1, “NEISSERIA TREATMENT USING CANNABINOIDS” (priority 2019, published 2023) can be followed below.

Holding throughout (type): cell-based
The subject of one assay is Neisseria meningitidis. Briefly: Broth microdilution MIC testing (Example 1). Here is the method: (§1) In this study, to evaluate the spectrum of activity, cannabidiol (CBD) was profiled against Neisseria. Testing was conducted following guidelines recommended by the Clinical and Laboratory Standards Institute (CLSI, 1-4), using vancomycin, meropenem, levofloxacin, and gentamicin as comparators for testing aerobic bacteria.
(§2) Test agents were supplied by Micromyx. Stock solutions of all compounds were prepared on the first day of testing at 101× the highest test concentration using solvents recommended by CLSI. CBD was prepared fresh on each of testing.
(§3) The test organisms evaluated in this study consisted of clinical isolates from the Micromyx Repository, reference isolates from the American Type Culture Collection (ATCC; Manassas, Va.), isolates from the antibiotic resistance bank from the Centers for Disease Control and Prevention (CDC; Atlanta, Ga.), and isolates from the Network on Antimicrobial Resistance in Staphylococcus aureus (NARSA; BEI Resources, Manassas, Va.). Upon initial receipt at Micromyx, the organisms were sub-cultured onto an appropriate agar medium. Following incubation, colonies were harvested from these plates and cell suspensions prepared and frozen at −80° C. with a cryoprotectant.
(§4) Prior to testing, Neisseria was streaked onto Chocolate agar (BD; Lot No. 9228071) and incubated at 35° C. in 5% CO2 for 24 hr.
(§5) For Neisseria, a modified medium described by the ATCC as capable of supporting growth was used. This medium contains 15 g Oxoid Special Peptone, 1 g corn starch (Ward's Science; Rochester, N.Y.; Lot 39-3271), 5 g NaCl (VWR; 57897), 4 g K2HPO4 (Sigma; Lot SLBT7061), 1 g KH2PO4 (SLBC1921V), and 1% IsoVitaleX (BD; Lot 8323954) enrichment per 500 mL.
(§6) MIC values were determined using a broth microdilution procedure described by CLSI (1-4). Automated liquid handlers (Multidrop 384, Labsystems, Helsinki, Finland; Biomek 2000 and Biomek FX, Beckman Coulter, Fullerton, Calif.) were used to conduct serial dilutions and liquid transfers.
(§7) To prepare the drug mother plates, which would provide the serial drug dilutions for the replicate daughter plates, the wells of columns 2 through 12 of standard 96-well microdilution plates (Costar 3795) were filled with 150 μl of the designated diluent for each row of drug. The test article and comparator compounds (300 μl at 101× the highest concentration to be tested) were dispensed into the appropriate wells in column 1. The Biomek 2000 was then used to make 2-fold serial dilutions in the mother plates from column 1 through column 11. The wells of column 12 contained no drug and served as the organism growth control wells for the assay.
(§8) The daughter plates were loaded with 190 μL per well of the appropriate test medium for the tested organism using the Multidrop 384. The daughter plates were completed on the Biomek FX instrument which transferred 2 μL of drug solution from each well of a mother plate to the corresponding well of each daughter plate in a single step.
A standardized inoculum of each test organism was prepared per CLSI methods (1-4). The inoculum for each organism was dispensed into sterile reservoirs divided by length (Beckman Coulter), and the Biomek 2000 was used to inoculate the plates. […]
The plates for testing of aerobic organisms were stacked 3 to 4 high, covered with a sterile lid, and incubated at 35° C. and 5% CO2 for the time periods specified in CLSI (1-4). […] The MIC was read and recorded as the lowest concentration of drug that inhibited visible growth of the organism.

For assay [1], the system named is Neisseria gonorrhoeae. Briefly: Broth microdilution MIC testing (Example 1). Here is the method:
as §1, §2, §3, §4, §5, §6, §7, §8
A standardized inoculum of each test organism was prepared per CLSI methods (1-4). The inoculum for each organism was dispensed into sterile reservoirs divided by length (Beckman Coulter), and the Biomek 2000 was used to inoculate the plates. Daughter plates were placed on the Biomek 2000 work surface in reverse orientation so that inoculation took place from low to high drug concentration. Plates were inoculated with 10 μL of the inoculum resulting in a final cell density of approximately 5×10^5 CFU/mL per well.
The plates for testing of aerobic organisms were stacked 3 to 4 high, covered with a sterile lid, and incubated at 35° C. and 5% CO2 for the time periods specified in CLSI (1-4). […] Following incubation, the microplates were removed from the incubator and viewed from the bottom using a plate viewer. […] The MIC was read and recorded as the lowest concentration of drug that inhibited visible growth of the organism.

Assay [2] deals with Staphylococcus aureus ATCC 29213. The assay can be described thus: Broth microdilution MIC assay, quality control strain (Example 2). The following applies: ATCC29213, S. aureus ATCC 29213 (QC), CAMHB. The protocol:
Following incubation, colonies were harvested from these plates and cell suspensions prepared and frozen at −80° C. with a cryoprotectant. Prior to testing, N. gonorrhoeae isolates were streaked onto Chocolate Agar [Becton Dickinson, (BD), Sparks, Md.; Lot No. 922807]; Staphylococcus aureus ATCC 29213 tested for quality control (QC) purposes was streaked onto Trypticase Soy Agar with 5% Sheep Blood (TSA II; BD; Lot No. 9219399).
Cation-adjusted Mueller Hinton broth (CAMHB; BD; Lot No. 9019592) was used for MIC testing of S. aureus ATCC 29213 for QC purposes.
MIC values were determined using a broth microdilution procedure described by CLSI (1, 2). Automated liquid handlers (Multidrop 384, Labsystems, Helsinki, Finland; Biomek 2000 and Biomek FX, Beckman Coulter, Fullerton Calif.) were used to conduct serial dilutions and liquid transfers.
as §7, with “articles” for “article”, “100×” for “101×”
The daughter plates were loaded with 190 μL per well of the appropriate test medium for the tested organism using the Multidrop 384. The daughter plates were completed on the Biomek FX instrument which transferred 2 μL of drug solution from each well of a mother plate to the corresponding well of each daughter plate in a single step. Daughter plates for the testing of anaerobes were allowed to pre-reduce in the Bactron II anaerobe chamber for 2 hr prior to inoculation.
A standardized inoculum of each test organism was prepared per CLSI methods (1, 2). The inoculum for each organism was dispensed into sterile reservoirs divided by length (Beckman Coulter), and the Biomek 2000 was used to inoculate the plates. Daughter plates were placed on the Biomek 2000 work surface in reverse orientation so that inoculation took place from low to high drug concentration. Anaerobic organisms were inoculated by hand in the Bactron II anaerobic chamber. Bacterial plates were then inoculated with 10 μL of the inoculum resulting in a final cell density of approximately 5×10^5 CFU/mL.
Plates were stacked 3 to 4 high, covered with a lid on the top plate and placed in plastic bags. […] The MIC was read and recorded as the lowest concentration of drug that inhibited visible growth of the organism.

Assay [3] deals with Neisseria gonorrhoeae. Briefly: Agar dilution MIC assay, 25 isolates (Example 3). The following applies: for MIC: Neisseria gonorrhoeae, agar dilution. The protocol: The MIC of Neisseria gonorrhoea was established using an agar dilution MIC assay.
Test drugs were provided by Micromyx. All stock solutions were allowed to stand for at least 1 hr prior to use to auto-sterilize. Leftover stock solutions of comparator drugs were aliquoted and stored at −80° C. Suppliers, catalog/lot numbers, solvents, stock concentrations and testing ranges were as follows.
Test organisms were reference strains from the American Type Culture Collection (ATCC; Manassas, Va.), isolates from WHO, isolates from the CDC antibiotic resistance bank, and clinical isolates from the Micromyx (MMX) repository. Upon receipt at Micromyx, the isolates were streaked under suitable conditions onto agar medium appropriate to each organism and were incubated for 24-48 hr at 35° C. Colonies harvested from these growth plates were resuspended in the appropriate medium containing a cryoprotectant. Aliquots of each suspension were then frozen at −80° C.
Prior to testing, the isolates were sub-cultured onto Chocolate agar (Becton Dickenson [BD]/BBL; Sparks, Md., Cat. No. 221267, Lot No. 9346275) and placed at 35° C. in a CO2 incubator for 24 hrs.
MIC values were determined using the agar dilution method (1, 2). All serial dilutions and liquid handling were performed by hand using sterile pipettes. […] Cannabidiol was prepared as a stock solution at 100× the final concentration in the appropriate solvent and diluted according to CLSI guidelines.
Each test agent was mixed with molten (50-55° C.) GC media agar supplemented with 1% IsoVitalex. […] All other test agents were added to the medium in a ratio of 0.2 mL 100× test agent to 19.8 mL agar. Once test agents were added to the agar in a sterile tube, they were mixed gently and then poured into a sterile 110×15 mm petri dish. Plates were allowed to solidify at room temperature and placed in a laminar air flow hood with the covers off to remove condensed moisture on the agar surface.
Next, each isolate was suspended to the equivalent of a 0.5 McFarland standard in saline using a Siemens Microscan turbidity meter and diluted 1:10. Each bacterial cell suspension was then transferred to wells in a stainless-steel replicator block. The prongs on the replicator deliver approximately 1-2 μl of inoculum to an agar surface. The resulting inoculum spots contained approximately 10^4 cells/spot.
Each agar plate containing either test compound or no drug (control) was stamped with the replicator. All plates were placed with the agar surface up to allow for the inoculum to soak into the agar. The plates were inverted and incubated at 35° C. for 24 hrs in a CO2 incubator and finally inspected for growth.

The mark [4] stands for this setting: Neisseria meningitidis, ATCC13090, N. meningitidis MMX 0707 / ATCC 13090, broth microdilution, read-out: MIC.
[5] abbreviates: Neisseria gonorrhoeae, ATCC49226, N. gonorrhoeae MMX 0683 / ATCC 49226, broth microdilution, plate read at 40 hr, read-out: MIC.
The mark [6] stands for this setting: Neisseria gonorrhoeae, N. gonorrhoeae MMX 6746, broth microdilution, read-out: MIC.
Setting [7] is: Neisseria gonorrhoeae, N. gonorrhoeae MMX 6757, broth microdilution, plate read at 40 hr, read-out: MIC.
Where [8] appears, read: 25 isolates, agar dilution assay, MIC distribution.

Values after ≈ are worked out from the molar mass of the structure shown. Like-named read-outs stand apart in the source and are kept apart here.

With `CN[C@H](CC(C)C)C(=O)N[C@H]1C(=O)N[C@@H](CC(N)=O)C(=O)N[C@H]2C(=O)N[C@H]3C(=O)N[C@H](C(=O)N[C@H](C(=O)O)c4cc(O)cc(O)c4-c4cc3ccc4O)[C@H](O)c3ccc(c(Cl)c3)Oc3cc2cc(c3O[C@@H]2O[C@H](CO)[C@@H](O)[C@H](O)[C@H]2O[C@H]2C[C@](C)(N)[C@H](O)[C@H](C)O2)Oc2ccc(cc2Cl)[C@H]1O` [VAN, vancomycin], the MIC in the assay on Neisseria meningitidis (Neisseria meningitidis, ATCC13090) was greater than 32 µg/mL; against Neisseria gonorrhoeae [1] (Neisseria gonorrhoeae), 16 µg/mL (≈ 11 µM); with Neisseria gonorrhoeae [1] (Neisseria gonorrhoeae, 40 h) it was 32 µg/mL (≈ 22.1 µM); against Neisseria gonorrhoeae [1] (Neisseria gonorrhoeae, ATCC49226, 40 h) it was 8 µg/mL (≈ 5.52 µM).

For `C[C@@H](O)[C@H]1C(=O)N2C(C(=O)O)=C(S[C@@H]3CN[C@H](C(=O)N(C)C)C3)[C@H](C)[C@H]12` [MEM, meropenem], the MIC is less than 0.03 µg/mL in the assay with Neisseria meningitidis (setting [4]), less than 0.03 µg/mL in the assay with Neisseria gonorrhoeae [1] (setting [5]), 0.06 µg/mL (≈ 0.156 µM) in the assay with Neisseria gonorrhoeae [1] (setting [6]) and less than 0.03 µg/mL in the assay on Neisseria gonorrhoeae [1] (setting [7]).

The compound `O=C(O)c1cn(C2CC2)c2cc(N3CCNCC3)c(F)cc2c1=O` [CIP, ciprofloxacin] displayed an MIC in assay [2] of 0.25 µg/mL (≈ 0.754 µM). Further, in the assay with Neisseria gonorrhoeae [3] (setting [8]), the “Number of isolates at MIC 0.015 μg mL^−1” value is on record as 3, the “Number of isolates at MIC 0.03 μg mL^−1” value came to 0, the “Number of isolates at MIC 0.06 μg mL^−1” value stood at 0 and the “Number of isolates at MIC 0.12 μg mL^−1” value is 1. In the assay with Neisseria gonorrhoeae [3] (setting [8]), the “Number of isolates at MIC 0.25 μg mL^−1” value came out at 0, the “Number of isolates at MIC 0.5 μg mL^−1” value came to 0, the “Number of isolates at MIC 1 μg mL^−1” value is given as 0 and the “Number of isolates at MIC 4 μg mL^−1” value was determined as 2. Besides, in the assay with Neisseria gonorrhoeae [3] (setting [8]), the “Number of isolates at MIC >8 μg mL^−1” value came out at 11 and the “Number of isolates at MIC ≤0.004 μg mL^−1” value was found to be 6. This compound showed a minimum inhibitory concentration (MIC) against Neisseria gonorrhoeae [3] (N. gonorrhoeae CDC 0177) of 0.015 µg/mL (≈ 0.0453 µM). Besides, in the assay on Neisseria gonorrhoeae [3] (N. gonorrhoeae CDC 0181), the MIC is 0.015 µg/mL (≈ 0.0453 µM). Further, the MIC in the assay with Neisseria gonorrhoeae [3] (NCTC13478, N. gonorrhoeae NCTC 13478 (WHO G)) is 0.12 µg/mL (≈ 0.362 µM). The compound further showed an MIC against Neisseria gonorrhoeae [3] (NCTC13481, N. gonorrhoeae NCTC 13481 (WHO M)) of 2 µg/mL (≈ 6.04 µM). In the assay on Neisseria gonorrhoeae [3] (NCTC13483, N. gonorrhoeae NCTC 13483 (WHO O)), the MIC came to 0.015 µg/mL (≈ 0.0453 µM).

As to gentamicin, the MIC in the assay on Neisseria meningitidis (N. meningitidis MMX 0707 / ATCC 13090, broth microdilution) is 8 µg/mL; in the assay with Neisseria gonorrhoeae [1] (N. gonorrhoeae MMX 0683 / ATCC 49226, broth microdilution, plate read at 40 hr), 4 µg/mL; in the assay with Neisseria gonorrhoeae [1] (N. gonorrhoeae MMX 6746, broth microdilution), 16 µg/mL; against Neisseria gonorrhoeae [1] (N. gonorrhoeae MMX 6757, broth microdilution, plate read at 40 hr), 8 µg/mL.

As for `C[C@H]1COc2c(N3CCN(C)CC3)c(F)cc3c(=O)c(C(=O)O)cn1c23` [LVX, levofloxacin], the MIC in the assay on Neisseria meningitidis (setting [4]) was 0.004 µg/mL (≈ 0.0111 µM); with Neisseria gonorrhoeae [1] (setting [5]), 0.002 µg/mL (≈ 0.00553 µM); in the assay on Neisseria gonorrhoeae [1] (setting [6]) it was 4 µg/mL (≈ 11.1 µM); in the assay on Neisseria gonorrhoeae [1] (setting [7]) it was 0.015 µg/mL (≈ 0.0415 µM).
